Reference: article PMC9494680 (ACS Omega, 2022)

What was measured:
SET-2 cells = settings: human megakaryoblastic cell line; cited from earlier work
JAK3 = JAK3 (Homo sapiens, UniProt P52333); settings: read-out: IC50 for JAK3 kinase inhibition; cited from earlier work
TF1 cells [1] = test: Annexin V and dead cell flow cytometric apoptosis analysis; assay type: cell-based, human; settings: TF1, IC25, IC50, IC75, 24 h
JAK1 = settings: read-out: IC50 for JAK1; cited from earlier work
HEL cells = test: Cytotoxicity, PrestoBlue assay, HEL cells; assay type: cell-based; settings: Homo sapiens, 72 h, read-out: IC50 toward HEL cells
TF1 cells [2] = test: Cytotoxicity, PrestoBlue assay, TF1 cells; assay type: cell-based; settings: Homo sapiens, TF-1, 72 h, read-out: IC50 toward TF1 cells

Sequence of JAK3 (P52333 781-1124 limits assumed): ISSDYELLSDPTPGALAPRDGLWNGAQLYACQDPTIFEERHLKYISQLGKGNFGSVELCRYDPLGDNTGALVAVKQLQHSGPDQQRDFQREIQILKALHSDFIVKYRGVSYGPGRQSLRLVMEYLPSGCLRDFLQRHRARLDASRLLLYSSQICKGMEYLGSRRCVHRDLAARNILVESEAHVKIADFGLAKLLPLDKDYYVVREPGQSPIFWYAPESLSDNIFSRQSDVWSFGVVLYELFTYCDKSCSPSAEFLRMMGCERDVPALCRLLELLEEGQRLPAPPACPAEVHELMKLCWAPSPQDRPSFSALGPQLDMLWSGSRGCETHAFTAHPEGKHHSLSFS

For `Fc1cc(-c2cccc3ncc(-c4cnn(C5CCNCC5)c4)nc23)cc(F)c1CN1CCOCC1` [NVP-BSK805], the “Apoptosis induction in SET-2 cells” value (SET-2 cells) is given as “induced apoptosis in SET-2 cells”.
For `COc1cc2ncnc(Nc3ccc(O)cc3)c2cc1OC` [WHI-P131], the IC50 (JAK3) is listed as 9 µM.
For `N#CC[C@H](C1CCCC1)n1cc(-c2ncnc3[nH]ccc23)cn1` [ruxolitinib], the “Percentage of cell apoptosis vs dose, annexin V” value (TF1 cells [1]) is given as “increased in a dose-dependent manner”, the IC50 (JAK1) is given as […] and the IC50 (HEL cells) is given as 19.3 ± 0.64 µM. The IC50 (TF1 cells [2]) was 10.7 ± 0.88 µM.
For `C[C@@H]1CCN(C(=O)CC#N)C[C@@H]1N(C)c1ncnc2[nH]ccc12` [tofacitinib], the “Percentage of cell apoptosis vs dose, annexin V” value (TF1 cells [1]) was “increased in a dose-dependent manner”.
